Reference: US20060106102A1, “Napththalene derivatives which inhibit the cytokine or biological activity of microphage migration inhibitory factor (mif)” (priority 2002, published 2006)
Values joined by “and” are separate entries in the source; they are usually repeats but may differ in a detail not shown here. Identical values can stand only once. Like-named read-outs stand apart in the source and are kept apart here.

Experiments:
[1] = tested on: IL-1-induced COX-2 expression; assay: IL-1-induced COX-2 expression in S112 human dermal fibroblasts (MIF-dependent event), flow cytometry; format: cell-based
Summary of the method: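 Human dermal fibroblasts seeded at 10^5 cells/ml in RPMI/0.1% BSA for 18 h, then IL-1 stimulated with or without compound. Saponin-permeabilised cells stained with anti-COX-2 mAb plus FITC secondary; flow cytometry MFI, negative control subtracted, duplicates. Result is % inhibition of IL-1-induced MFI, mean or mean±SEM.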

[2] = tested on: LPS-induced IL-1 release from peritoneal macrophages; assay: LPS-induced interleukin 1 release from murine peritoneal macrophages, ELISA; format: cell-based, C57BL6/J mice
Description: C57BL6/J male mice were injected intraperitoneally with 2ml of thioglycollate. Five (5) days later peritoneal macrophages were collected by ravaging the peritoneum of anaesthetized mice with 3 ml of cold Hanks buffered saline solution. Cells from several mice were pooled, washed and re-suspended in DMEM supplemented with 5% FCS. Cells were plated in 96 well plastic tissue culture plates at 1×10^5 cells/well. Cells were treated with compound or vehicle for 1 hour in a 5% CO2 incubator at 37° C. Cells were then treated with LPS (10 ng/ml) and incubated for 24 hours. After 24 hours, 50 μl of supernatant from each well was carefully removed and transferred to ELISA plates. The concentration of interleukin 1 (IL-1 ) was measured by ELISA. The concentration of compound at which LPS-induced cytokine release was suppressed by 50% compared to vehicle-only-treated cells (EC50) was calculated using Prism® software. FIG. 13 and Table 8 provide the data for compound 6 tested in this assay.

[3] = tested on: murine endotoxic shock model (LPS); assay: murine endotoxic shock model, serum cytokines by ELISA; format: in vivo; settings: mice
Description: The activity of 6,7-dihydroxynaphthalene-3-sulfonic acid (compound 6) was studied in the murine endotoxic shock model. This model has been previously shown to be dependent on MIF (35). […] Endotoxaemia was induced by intra-peritoneal injection of lipopolysaccharide (LPS) (15 mg/kg) in 400 μl saline. Mice were treated with a saline solution (control) only, a saline solution and LPS, or LPS and 6,7-dihydroxynaphthalene-2-sulfonic acid (compound 6) at a dose of 15 mg/kg body weight by intra-peritoneal injection at 24 hours, 12 hours and 1 hour before intra-peritoneal LPS injection. After 1.5 or 6 hours mice were humanely killed by CO2 inhalation then neck dislocation. Serum was obtained from blood obtained by cardiac puncture prior to death and measured for cytokines including interleukin 1 (IL-1) and interleukin 6 (IL-6) by ELISA. The production of IL-1 and IL-6 has been previously shown to be dependent on MIF (36).
The effect of compounds was further tested under a variety of conditions in animals exposed to endotoxic shock induced as above by the injection of 15 mg/kg LPS by intraperitoneal injection. In each case, compounds were administered by intraperitoneal injection at a dose of 15 mg/kg. Compound administration was associated with reductions in serum cytokine concentration under a variety of administration regimens.

[4] = tested on: antigen-specific T cell activation (splenic T lymphocytes from mBSA-immunised mice); assay: antigen-specific (mBSA) activation of splenic T lymphocytes in vitro, 3H-thymidine incorporation; format: cell-based, C57BL6/J mice; settings: Mus musculus, T-cell, read-out: EC50 (T cell activation suppressed by 50% compared to vehicle-only-treated cells)
Summary of the method: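 Splenocytes from mBSA-immunised mice, erythrocytes lysed, stimulated with mBSA 10–50 μg/mL for 30 h at 37 °C, 5% CO2. 3H-thymidine (0.5 μCi/well) then added for 18 h; proliferation read by scintillation counting.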

O=S(=O)(O)c1ccc2cc(O)c(O)cc2c1 [Compound 6, 6,7-dihydroxynaphthalene-2-sulfonic acid]
inhibition of IL1-induced COX-2 expression, dose response (FIG. 3) ([1]; 0.01, 0.1, 1.0, 10 and 50 μM): Dose-dependent inhibition | inhibition at 1 µM ([1]; Homo sapiens, Fibroblast, compound 1 uM, IL-1 0.1 ng/ml, 6 hours, S112 cells, read-out: % inhibition of IL-1-induced COX2 expression (Effect)): 16.4% | inhibition at 10 µM ([1]; Homo sapiens, Fibroblast, compound 10 uM, IL-1 0.1 ng/ml, 6 hours, S112 cells, read-out: % inhibition of IL-1-induced COX2 expression (Effect)): 22.4% | inhibition at 25 µM ([1]; Homo sapiens, Fibroblast, compound 25 uM, IL-1 0.1 ng/ml, 6 hours, S112 cells, read-out: % inhibition of IL-1-induced COX2 expression (Effect)): 21.3% | inhibition at 50 µM ([1]; Homo sapiens, Fibroblast, compound 50 uM, IL-1 0.1 ng/ml, 6 hours, S112 cells, read-out: % inhibition of IL-1-induced COX2 expression (Effect)): 25.7% | inhibition at 100 µM ([1]; Homo sapiens, Fibroblast, compound 100 uM, IL-1 0.1 ng/ml, 6 hours, S112 cells, read-out: % inhibition of IL-1-induced COX2 expression (Effect)): 24.4% | % inhibition (IL-1 induced COX-2 expression) ([1]; Table 2 experiment 1: compound alone, 50 μM): 38.0% | inhibition of macrophage IL-1 release, dose-response (FIG. 13) ([2]; LPS 10 ng/ml, p<0.02): marked and statistically significant inhibition of macrophage IL-1 release | EC50 ([2]; Mus musculus, Peritoneal macrophage, [LPS] 10 ng/mL, 24 hours, read-out: EC50 (LPS-induced IL-1 release suppressed by 50%)): 27 µM | Serum TNF, LPS plus compound ([3]; compound 15 mg/kg i.p. at −18 h before LPS 15 mg/kg i.p.): 3970 ± 2565 pg/mL | Serum IL-6, LPS plus compound ([3]; compound 15 mg/kg i.p. at −24 h, −1 h before LPS 15 mg/kg i.p.): 150 ± 19 ng/mL and 104 ± 11 ng/mL | serum IL-1, LPS plus compound ([3]; compound 15 mg/kg i.p. at −24 h, −12 h, −1 h before LPS 15 mg/kg i.p.): 257 ± 70 ng/mL | EC50 ([4]; mBSA 10 μg/ml): 21.8 µM | EC50 ([4]; mBSA 50 μg/ml): 104 µM
